Experimental data taken from US10869931B2, “Polyethylene glycol-modified angiogenesis inhibitor HM-1 and application thereof” (NANJING ANJI BIOLOGICAL TECHNOLOGY CO.,LTD, priority 2016, dated 2020).
Marks after values point to notes of the source that are not given here. Where no end group is shown, it is not given here.

Experiments:
Liver cancer tumor cells = assay: MTT proliferation inhibition, liver cancer cells; type: cell-based, human; parameters: concentration or dose not given beside the values; conditions: 48 h
Method: (§1) The activity of mPEG-HM-1 to inhibit the growth of various tumor cells was examined by MTT assay. The tumor cells were cultured to a concentration of 90% or more in a 37° C., 5% CO2 incubator and collected by trypsinization. The cells were resuspended in the culture medium and counted under a microscope to adjust the cell concentration to 2×10^4 cells/mL, the cell suspension was inoculated into a 96-well plate at 100 μL/well and incubated overnight at 37° C. in a 5% CO2 incubator. mPEG-HM-1 was diluted with the culture solution to each predetermined concentration. Docetaxel is diluted to the final concentration with the culture medium. After the cells were fully attached, each dilution was added to a 96-well plate (100 μL/well). The mPEG-HM-1 dilution was added as a drug-administered group, and docetaxel was added as a positive control group, and a culture solution without any drug was used as a negative control group. Incubate for 48 h at 37° C. in a 5% CO2 incubator. 5 mg/mL of MTT was added to a 96-well plate at 20 μL per well, and incubation was continued for 4 hours. The medium was aspirated, dissolved in 150 μL of DMSO per well, and gently mixed by shaking for 10 min. The absorbance was measured at a measurement wavelength of 570 nm and a reference wavelength of 630 nm using a microplate reader, and the rate of growth inhibition (proliferation inhibition, PI) was calculated. The formula is as follows: PI (%)=1−administration group/negative group
(§2) The test was repeated 3 times independently, and the results obtained by the test were expressed as mean±SD, and the test results are shown in Table 15 to Table 18.

[1] = test system: Gastric cancer tumor cells; assay: MTT proliferation inhibition, gastric cancer cells; type: cell-based, human; parameters: concentration or dose not given beside the values; conditions: 48 h
Method: as §1, §2

[2] = test system: Breast cancer tumor cells; assay: MTT proliferation inhibition, breast cancer cells; type: cell-based, human; parameters: concentration or dose not given beside the values; conditions: 48 h
Method: as §1, §2

[3] = test system: Kidney cancer tumor cells; assay: MTT proliferation inhibition, kidney cancer cells; type: cell-based, human; parameters: concentration or dose not given beside the values; conditions: 48 h
Method: as §1, §2

[4] = test system: Prostate cancer tumor cells; assay: MTT proliferation inhibition, prostate cancer cells; type: cell-based, human; parameters: concentration or dose not given beside the values; conditions: 48 h
Method: as §1, §2

[5] = test system: Human Umbilical Vein Endothelial Cells (HUVEC); assay: Transwell migration of HUVEC; type: cell-based; conditions: 24 h
Method: 10 mg/mL Matrigel was diluted 1:2 with HUVEC-specific medium, spread on a transwell chamber membrane, and air-dried at room temperature. HUVEC cells cultured in logarithmic growth phase were digested with trypsin digest, collected, washed twice with PBS, and resuspended in blank HUVECs-specific medium. The cells were counted under a microscope, and the cell concentration was adjusted to 1×10^5/mL. The test solutions of each group were prepared and diluted to 100 μL with a blank HUVECs-specific medium. The cells were seeded into a transwell chamber at 100 μL per well, and each set of test solution was added to the chamber. The cell culture was stimulated by adding 0.6 mL of endothelial cell culture medium containing 5% fetal bovine serum and 1% ECGS into a 24-well plate, and cultured at 5% CO2 for 24 hour at 37° c. Discard the culture medium in the well, fix it with 90% alcohol at room temperature for 30 minutes, 0.1% crystal violet for 10 min at room temperature, rinse with water, gently wipe off the unsprayed cells in the upper layer with a cotton swab, observe under microscope and select four fields to take pictures. Calculate migration inhibition (MI) according to the formula: […]
Ntest was the number of cell migration in the test group, and Ncontrol was the number of cell migration in the blank control group.
The test was repeated 3 times independently. The results obtained from the test were calculated as mean±SD, and a statistical T test was performed. *P<0.05 was a significant difference, and **P<0.01 was a very significant difference.

[6] = test system: neovascularization in rat model of premature retinopathy; assay: Fluctuating-oxygen rat model of premature retinopathy (endothelial nuclei count); type: in vivo; conditions: day 14
Method: A fluctuating oxygen-induced animal model was used to randomly divide the newborn rats that were naturally delivered on the same day (within 12 hours) into three groups: the oxygenated model group, the oxygenated treatment group, and the normal control group. The oxygenated model group was subdivided into three subgroup models and along with the oxygenated treatment group was placed in a semi-closed oxygen chamber made of plexiglass. The chamber was connected to medical oxygen, and the oxygen analyzer was adjusted to a concentration of 80%±2%. After 24 hours, Nitrogen gas was introduced into the oxygen chamber, and the oxygen concentration was adjusted to 10%±2% and maintained for 24 h. This process was repeated, so that the oxygen concentration in the oxygen chamber is switched between 80% and 10% every 24 hours, and then transferred to the air for 7 days. The oxygen concentration was monitored 8 times a day, and the ambient temperature in the control cabin was 23° C.±2° C. Bedding change, adding food, changing water and replacing mother rats were performed once a day. The normal control group was placed in an animal facility environment. […] The oxygenated therapeutic components were divided into four subgroups, and on the 7th day of modeling, mPEG-SC-HM-1, mPEG2-NHS-HM-1, mPEG-ALD10k-HM-1, and mPEG-bALD-HM-1 were respectively administered by intravitreal injection. Only normal saline was administered to the oxygen model group and the control group. The administrations continued for 1 week. […] After immersion in wax, serial section at thickness of 4 μm was performed, wherein the sections were kept away from the optic disc. The sections are parallel to the sagittal plane of the cornea to the optic disc. Ten sections per eyeball were randomly selected from each eyeball to be stained with hematoxylin and eosin, and the number of vascular endothelial cells that broke through the retinal inner membrane was counted (only the vascular endothelial nucleus closely related to the inner retinal membrane was counted), and the average numbers of endothelial cells per eyeball per slice was counted.

[7] = in vivo
[8] = 25 μg intravitreal for 1 week from day 7, vascular endothelial nuclei breaking through inner retinal membrane per slice
[9] = 50 μg intravitreal for 1 week from day 7, vascular endothelial nuclei per slice

| Substance | rate of growth inhibition (Liver cancer tumor cells) | rate of growth inhibition [1] | rate of growth inhibition [2] | rate of growth inhibition [3] | rate of growth inhibition [4] | cell migration number (Mean ± SD) ([5]; 30 μg/mL) | inhibition rate of HUVEC migration ([5]; 30 μg/mL) | cell migration number (Mean ± SD) ([5]; 40 μg/mL) | cell migration number (Mean ± SD) ([5]; 50 μg/mL) | inhibition rate of HUVEC migration ([5]; 50 μg/mL) | cell migration number (Mean ± SD) ([5]; 60 μg/mL) | inhibition rate of HUVEC migration ([5]; 60 μg/mL) | AUC0-∞ [7] | CL [7] | MRT0-∞ [7] | T1/2β (half-life) [7] | cell migration number (Mean ± SD) ([5]; 70 μg/mL) | inhibition rate of HUVEC migration ([5]; 70 μg/mL) | cell migration number (Mean ± SD) ([5]; 80 μg/mL) | inhibition rate of HUVEC migration ([5]; 80 μg/mL) | other results |
| --- | --- | --- | --- | --- | --- | --- | --- | --- | --- | --- | --- | --- | --- | --- | --- | --- | --- | --- | --- | --- | --- |
| mPEG2-NHS5k-Arg-Gly-Ala-Asp-Arg-Ala-Gly-Gly-Gly-Gly-Arg-Gly-Asp ({mPEG2‑NHS 5 kDa}-RGADRAGGGGRGD) [mPEG2-NHS5k-HM-1] | 50.92 ± 11.66% | 50.31 ± 13.29% | 45.69 ± 12.10% | 47.52 ± 11.48% | 39.33 ± 12.01% | 611.33 ± 58.92 | 41.03%* | 516.16 ± 48.34 | 475.01 ± 50.90 | 54.18% | 590.29 ± 50.72 | 43.06%* | 4789.25 ± 12.08 mg/L/h | 0.878 ± 0.187 mL/min/kg | 8.02 ± 5.04 h | 8.85 ± 0.10 h |  |  |  |  | inhibition rate of HUVEC migration ([5]; 40 μg/mL): 50.21%; Cell nuclei count [6, 8]: 9.212 ± 3.134 |
| mPEG2-NHS10k-Arg-Gly-Ala-Asp-Arg-Ala-Gly-Gly-Gly-Gly-Arg-Gly-Asp ({mPEG2‑NHS 10 kDa}-RGADRAGGGGRGD) [mPEG2-NHS10k-HM-1] | 54.19 ± 12.80% | 55.67 ± 13.53% | 50.92 ± 13.97% | 52.09 ± 14.91% | 42.39 ± 12.65% |  |  |  | 603.97 ± 40.36 | 41.74%* | 506.83 ± 46.25 | 51.11% | 4858.62 ± 10.62 mg/L/h | 0.432 ± 0.103 mL/min/kg | 13.08 ± 3.66 h | 15.27 ± 0.11 h | 410.53 ± 48.64 | 60.40% | 563.02 ± 56.22 | 45.69%* | Cell nuclei count [6, 9]: 8.786 ± 3.072 |
| mPEG2-NHS20k-Arg-Gly-Ala-Asp-Arg-Ala-Gly-Gly-Gly-Gly-Arg-Gly-Asp ({mPEG2‑NHS 20 kDa}-RGADRAGGGGRGD) [mPEG2-NHS20k-HM-1] | 55.03 ± 14.19% | 60.90 ± 20.14% | 52.68 ± 17.25% | 55.20 ± 15.43% | 47.75 ± 10.14% |  |  |  |  |  |  |  | 4682.53 ± 15.01 mg/L/h | 0.218 ± 0.17 mL/min/kg | 18.16 ± 10.22 h | 22.38 ± 0.34 h | 618.48 ± 47.53 | 40.34%* | 512.85 ± 40.86 | 50.53% | cell migration number (Mean ± SD) ([5]; 90 μg/mL): 434.68 ± 42.64; inhibition rate of HUVEC migration ([5]; 90 μg/mL): 58.07%; cell migration number (Mean ± SD) ([5]; 100 μg/mL): 562.61 ± 62.34; inhibition rate of HUVEC migration ([5]; 100 μg/mL): 45.73%*; Cell nuclei count ([6]; 100 μg intravitreal for 1 week from day 7, vascular endothelial nuclei per slice): 7.683 ± 2.914 |
| mPEG2-NHS40k-Arg-Gly-Ala-Asp-Arg-Ala-Gly-Gly-Gly-Gly-Arg-Gly-Asp ({mPEG2‑NHS 40 kDa}-RGADRAGGGGRGD) [mPEG2-NHS40k-HM-1] | 53.77 ± 13.64% | 56.39 ± 11.58% | 49.12 ± 16.19% | 58.73 ± 14.31% | 45.91 ± 11.74% |  |  |  |  |  |  |  | 4579.47 ± 13.52 mg/L/h | 0.11 ± 0.0883 mL/min/kg | 15.27 ± 9.37 h | 42.25 ± 0.27 h |  |  |  |  | cell migration number (Mean ± SD) ([5]; 90 μg/mL): 640.05 ± 50.70; inhibition rate of HUVEC migration ([5]; 90 μg/mL): 38.26%*; cell migration number (Mean ± SD) ([5]; 100 μg/mL): 516.99 ± 60.04; inhibition rate of HUVEC migration ([5]; 100 μg/mL): 50.13%; cell migration number (Mean ± SD) ([5]; 110 μg/mL): 464.43 ± 46.48; inhibition rate of HUVEC migration ([5]; 110 μg/mL): 55.20%; cell migration number (Mean ± SD) ([5]; 120 μg/mL): 584.48 ± 52.28; inhibition rate of HUVEC migration ([5]; 120 μg/mL): 43.62%*; Cell nuclei count ([6]; 200 μg intravitreal for 1 week from day 7, vascular endothelial nuclei per slice): 8.495 ± 3.036 |
| mPEG-ALD5k-Arg-Gly-Ala-Asp-Arg-Ala-Gly-Gly-Gly-Gly-Arg-Gly-Asp ({mPEG‑ALD 5 kDa}-RGADRAGGGGRGD) [mPEG-ALD5k-HM-1] | 52.98 ± 11.55% | 58.77 ± 15.49% | 49.22 ± 11.87% | 55.43 ± 14.04% | 38.47 ± 11.52% | 606.88 ± 58.90 | 41.02%* | 494.52 ± 52.69 | 415.39 ± 44.92 | 59.63% | 578.69 ± 66.03 | 43.76%* | 4986.29 ± 10.16 mg/L/h | 0.843 ± 0.157 mL/min/kg | 8.15 ± 4.21 h | 9.13 ± 0.11 h |  |  |  |  | inhibition rate of HUVEC migration ([5]; 40 μg/mL): 51.94%; Cell nuclei count [6, 8]: 8.927 ± 2.902 |
| mPEG-ALD10k-Arg-Gly-Ala-Asp-Arg-Ala-Gly-Gly-Gly-Gly-Arg-Gly-Asp ({mPEG‑ALD 10 kDa}-RGADRAGGGGRGD) [mPEG-ALD10k-HM-1] | 70.55 ± 20.09% | 80.01 ± 18.26% | 70.19 ± 17.07% | 75.23 ± 19.11% | 51.09 ± 11.78% |  |  |  | 604.31 ± 52.14 | 41.27%* | 514.38 ± 42.38 | 50.01% | 5067.98 ± 9.79 mg/L/h | 0.425 ± 0.122 mL/min/kg | 11.05 ± 7.68 h | 16.46 ± 0.10 h | 417.96 ± 50.48 | 59.38% | 548.54 ± 56.22 | 46.69%* | Cell nuclei count [6, 9]: 7.581 ± 1.903 |
